# Activity calls are given as the source filed them.
# Target: T1, Ubiquitin-conjugating enzyme E2 N (Homo sapiens, UniProt P61088);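 also: Dose-response confirmation in a TR-FRET assay detecting UBC13-driven polyubiquitin chain formation, inhibition measured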
# T1 sequence (P61088 whole entry): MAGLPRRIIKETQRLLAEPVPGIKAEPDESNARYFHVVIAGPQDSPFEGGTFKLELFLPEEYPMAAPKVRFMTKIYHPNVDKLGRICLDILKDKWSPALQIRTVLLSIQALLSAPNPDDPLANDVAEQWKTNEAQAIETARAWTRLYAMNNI
# Type: functional
# Settings: not given
row,SMILES,IC50
1,C#CCOCCOCCOCCNc1nc(N2CCOCC2)nc(N2CCN(C(=O)CCCCCCCCCCNC(=O)[C@H]([C@@H](C)CC)n3cc(CCCCN=C(N)N)nn3)CC2)n1,> 20 µM (inactive)
2,COc1cc2sc(-c3ccc(S(C)(=O)=O)cc3)c(C(=O)NCCCCO)c2cc1OC,> 20 µM (inactive)

# Test system: not listed separately
# Assay: Luminescence Cell-Based Dose Confirmation HTS to Identify Inhibitors of Platelet Dense Granule Release. [Related pubchem assays: 1663 (Primary HTS), 1678 (Summary of Project)]
# Type: functional
# Settings: not given
row,SMILES,EC50
1,NC(=O)C1(N2CCCCC2)CCN(C(=O)Nc2ccccc2C(F)(F)F)CC1,> 112 µM (not active)
2,COc1ccc(-c2cc(C(F)(F)F)nc(SCC(=O)NCCN3CCOCC3)n2)cc1OC,47.9 µM (active)
3,CN(C)C=O.CNC(=O)CSc1nc2nc(C)cc(C)n2n1,> 112 µM (not active)
4,COc1ccccc1/C=C/CN1CCCC(CO)(Cc2cccc(Cl)c2)C1 (centres undefined),> 112 µM (not active)
5,CCCc1cc(=O)oc2cc(OCC(=O)N3CCc4ccccc43)ccc12,> 112 µM (not active)
6,CC1(C)CC(=O)C2=C(C1)N(c1ccccc1)C(=O)CC2c1ccsc1 (centres undefined),> 112 µM (not active)
7,O=C(Nc1cccnc1)c1cc(-c2ccc(Cl)c(Cl)c2)on1,> 112 µM (not active)
8,O=C(NCc1ccccc1)C(c1cccnc1)N(C(=O)c1ccccn1)c1ccccc1F (centres undefined),> 112 µM (not active)
9,COc1ccc(Nc2cc3n(c(=O)n2)CCc2cc(OC)c(OC)cc2-3)cc1,4.68 µM (active)

# Target: T2, Cytochrome P450 1A2 (Homo sapiens, UniProt P05177);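 also: PubChem cytochrome P450 panel assay, CYP1A2 panel member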
# T2 sequence (P05177 whole entry): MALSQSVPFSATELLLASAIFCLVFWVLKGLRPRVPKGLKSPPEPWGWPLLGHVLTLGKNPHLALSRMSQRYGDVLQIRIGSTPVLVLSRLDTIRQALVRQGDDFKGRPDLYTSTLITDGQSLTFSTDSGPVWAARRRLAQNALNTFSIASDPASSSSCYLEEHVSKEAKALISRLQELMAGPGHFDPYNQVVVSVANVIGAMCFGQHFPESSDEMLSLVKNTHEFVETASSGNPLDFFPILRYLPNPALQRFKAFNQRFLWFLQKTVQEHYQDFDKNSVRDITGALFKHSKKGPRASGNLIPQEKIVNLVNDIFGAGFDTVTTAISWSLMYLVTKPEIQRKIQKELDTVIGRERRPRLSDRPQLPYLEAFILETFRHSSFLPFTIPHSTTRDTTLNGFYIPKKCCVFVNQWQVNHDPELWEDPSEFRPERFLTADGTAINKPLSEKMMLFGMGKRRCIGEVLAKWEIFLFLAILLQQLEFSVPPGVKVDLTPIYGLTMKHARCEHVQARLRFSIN
# Settings: not given
row,SMILES,AC50
1,CN1C[C@H](C(=O)N[C@@]2(C)O[C@@]3(O)[C@H]4CCCN4C(=O)[C@@H](Cc4ccccc4)N3C2=O)C=C2c3cccc4[nH]cc(c34)C[C@@H]21,3.16 µM (inconclusive)
2,COc1ccc(C(=O)N2CC3(CC(c4cccc([N+](=O)[O-])c4)=NO3)C[C@H]2C(=O)NCC(N)=O)cc1 (some centres undefined),28.2 µM (inconclusive)
3,Nc1ncnc2c1ncn2C1CCCC1,20 µM (inconclusive)
4,COCCn1c(=O)c(-c2cn(C)c3ccccc23)nc2cnc(N3CCNCC3)nc21,12.6 µM (inconclusive)
5,COc1ccc(C(=O)Nc2ccc(Cl)cc2C(=O)NCCN2CCOCC2)cc1,22.4 µM (inconclusive)
6,CS(=O)(=O)N1CCC[C@@]2(CCN(c3ccccc3)C2)C1,31.6 µM (inconclusive)
7,C[N+](C)(CCCOc1ccccc1)c1ccccc1.O=C([O-])c1cc2ccccc2cc1O,12.6 µM (inconclusive)
8,C/C1=N/NC(=S)NCCCN2CCN(CCCNC(=S)N/N=C(/C)C=NNC(=S)NCCCN3CCN(CCCNC(=S)NN=C1)CC3)CC2,3.16 µM (inconclusive)
9,O=C(O)C=Cc1ccc(Cn2ccnc2)cc1,31.6 µM (inconclusive)
10,CC[N+](CC)(CCCNC1=CC(=O)C(NCCC[N+](CC)(CC)Cc2ccccc2)=CC1=O)Cc1ccccc1 [BENZOQUINONIUM],31.6 µM (inconclusive)

# Target: Cytochrome P450 3A4 (Homo sapiens, UniProt P08684);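 also: CYP3A4 tested as one member of a cytochrome P450 panel screen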
# Sequence (P08684 whole entry): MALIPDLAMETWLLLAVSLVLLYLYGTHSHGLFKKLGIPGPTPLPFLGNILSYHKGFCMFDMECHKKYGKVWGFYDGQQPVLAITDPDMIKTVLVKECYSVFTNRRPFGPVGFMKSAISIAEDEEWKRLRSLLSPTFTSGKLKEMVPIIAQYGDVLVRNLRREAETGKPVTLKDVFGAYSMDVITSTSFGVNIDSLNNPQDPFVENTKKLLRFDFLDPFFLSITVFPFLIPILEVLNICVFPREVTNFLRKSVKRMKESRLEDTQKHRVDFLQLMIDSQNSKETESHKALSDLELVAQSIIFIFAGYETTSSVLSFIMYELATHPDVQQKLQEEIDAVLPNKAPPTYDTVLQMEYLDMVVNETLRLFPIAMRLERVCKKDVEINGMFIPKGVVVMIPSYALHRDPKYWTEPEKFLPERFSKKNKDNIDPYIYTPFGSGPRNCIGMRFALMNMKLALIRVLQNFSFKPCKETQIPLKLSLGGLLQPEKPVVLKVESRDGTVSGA
# Settings: not given
row,SMILES,AC50
1,Nc1ncnc2c1ncn2C1CCCC1,0.0398 µM (inconclusive)

# Target: Luciferin 4-monooxygenase (Photinus pyralis, UniProt P08659)
# Sequence (P08659 whole entry): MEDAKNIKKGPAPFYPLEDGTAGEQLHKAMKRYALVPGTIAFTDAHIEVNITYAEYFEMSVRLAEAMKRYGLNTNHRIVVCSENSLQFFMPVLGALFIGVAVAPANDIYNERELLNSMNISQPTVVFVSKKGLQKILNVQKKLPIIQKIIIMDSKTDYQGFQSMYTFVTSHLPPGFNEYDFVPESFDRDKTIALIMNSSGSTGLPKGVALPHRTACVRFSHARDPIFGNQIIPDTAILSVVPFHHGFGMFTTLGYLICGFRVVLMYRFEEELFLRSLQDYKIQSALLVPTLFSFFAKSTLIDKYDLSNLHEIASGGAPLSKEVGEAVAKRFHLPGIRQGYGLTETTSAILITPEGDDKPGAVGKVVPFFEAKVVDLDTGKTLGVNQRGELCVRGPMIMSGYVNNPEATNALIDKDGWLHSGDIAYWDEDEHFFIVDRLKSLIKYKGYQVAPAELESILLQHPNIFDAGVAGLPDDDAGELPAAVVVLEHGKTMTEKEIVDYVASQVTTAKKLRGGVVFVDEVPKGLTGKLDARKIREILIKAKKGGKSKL
# Assay: firefly luciferase enzyme inhibitors, dose response, biochemical, luminescence (AID 1891)
# Settings: not given
row,SMILES,EC50
1,NC(=O)C1(N2CCCCC2)CCN(C(=O)Nc2ccccc2C(F)(F)F)CC1,> 112 µM (not active)
2,COc1ccc(-c2cc(C(F)(F)F)nc(SCC(=O)NCCN3CCOCC3)n2)cc1OC,> 112 µM (not active)
3,CN(C)C=O.CNC(=O)CSc1nc2nc(C)cc(C)n2n1,> 112 µM (not active)
4,COc1ccccc1/C=C/CN1CCCC(CO)(Cc2cccc(Cl)c2)C1 (centres undefined),> 112 µM (not active)
5,CCCc1cc(=O)oc2cc(OCC(=O)N3CCc4ccccc43)ccc12,> 112 µM (not active)
6,CC1(C)CC(=O)C2=C(C1)N(c1ccccc1)C(=O)CC2c1ccsc1 (centres undefined),> 112 µM (not active)
7,O=C(Nc1cccnc1)c1cc(-c2ccc(Cl)c(Cl)c2)on1,> 112 µM (not active)
8,O=C(NCc1ccccc1)C(c1cccnc1)N(C(=O)c1ccccn1)c1ccccc1F (centres undefined),> 112 µM (not active)
9,COc1ccc(Nc2cc3n(c(=O)n2)CCc2cc(OC)c(OC)cc2-3)cc1,> 112 µM (not active)

# Target: Cytochrome P450 2C9 (Homo sapiens, UniProt P11712)
# Sequence (P11712 whole entry): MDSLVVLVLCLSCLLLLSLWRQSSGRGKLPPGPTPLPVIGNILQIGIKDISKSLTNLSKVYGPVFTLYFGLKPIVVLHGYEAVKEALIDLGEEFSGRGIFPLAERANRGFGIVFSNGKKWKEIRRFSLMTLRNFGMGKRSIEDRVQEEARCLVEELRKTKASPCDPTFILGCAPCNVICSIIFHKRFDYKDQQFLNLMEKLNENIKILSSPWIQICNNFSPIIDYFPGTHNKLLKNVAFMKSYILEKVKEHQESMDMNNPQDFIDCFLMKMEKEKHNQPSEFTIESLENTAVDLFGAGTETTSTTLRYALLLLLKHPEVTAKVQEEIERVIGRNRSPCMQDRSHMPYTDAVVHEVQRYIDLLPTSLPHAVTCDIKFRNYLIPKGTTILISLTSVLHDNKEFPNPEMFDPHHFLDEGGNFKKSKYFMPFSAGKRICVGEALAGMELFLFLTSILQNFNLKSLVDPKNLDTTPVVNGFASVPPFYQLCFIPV
# Settings: not given
row,SMILES,AC50
1,CS(=O)(=O)N1CCC[C@@]2(CCN(c3ccccc3)C2)C1,25.1 µM (inconclusive)

# Target: Cytochrome P450 2C19 (Homo sapiens, UniProt P33261)
# Sequence (P33261 whole entry): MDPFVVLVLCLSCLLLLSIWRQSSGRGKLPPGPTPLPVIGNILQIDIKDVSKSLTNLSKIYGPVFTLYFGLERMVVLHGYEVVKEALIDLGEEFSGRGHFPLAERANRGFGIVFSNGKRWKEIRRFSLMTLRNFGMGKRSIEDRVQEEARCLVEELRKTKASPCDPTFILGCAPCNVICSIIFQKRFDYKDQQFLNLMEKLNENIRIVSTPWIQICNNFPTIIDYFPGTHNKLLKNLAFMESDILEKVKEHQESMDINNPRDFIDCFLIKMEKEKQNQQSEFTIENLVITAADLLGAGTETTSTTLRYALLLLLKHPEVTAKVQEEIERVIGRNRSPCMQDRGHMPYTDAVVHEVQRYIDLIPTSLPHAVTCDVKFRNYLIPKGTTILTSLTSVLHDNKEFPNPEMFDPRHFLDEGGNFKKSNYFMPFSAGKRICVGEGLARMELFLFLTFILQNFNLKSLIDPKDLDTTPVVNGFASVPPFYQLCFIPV
# Assay: Cytochrome panel assay with activity outcomes. Panel member name: p450-cyp2c19 Compounds with AC50 equal or less than 10 uM are considered active
# Type: functional
# Settings: read-out: AC50
row,SMILES,AC50
1,CCCc1cc(=O)oc2cc(OCC(=O)N3CCc4ccccc43)ccc12,1 µM (inconclusive)

# Target: T3, Streptokinase A (Streptococcus pyogenes serotype M1, UniProt P10520)
# T3 sequence (P10520 whole entry): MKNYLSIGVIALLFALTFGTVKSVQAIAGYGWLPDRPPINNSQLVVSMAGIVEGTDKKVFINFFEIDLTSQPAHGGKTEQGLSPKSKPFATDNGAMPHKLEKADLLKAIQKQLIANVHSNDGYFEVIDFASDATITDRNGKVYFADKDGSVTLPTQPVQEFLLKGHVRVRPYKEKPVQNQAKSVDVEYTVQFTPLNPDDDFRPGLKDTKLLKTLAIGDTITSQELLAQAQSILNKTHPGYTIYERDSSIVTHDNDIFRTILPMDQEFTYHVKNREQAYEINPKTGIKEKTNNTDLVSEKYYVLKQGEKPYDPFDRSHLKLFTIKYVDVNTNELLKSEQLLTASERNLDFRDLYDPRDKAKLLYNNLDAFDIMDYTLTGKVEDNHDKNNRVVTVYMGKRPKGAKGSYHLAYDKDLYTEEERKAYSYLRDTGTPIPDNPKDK
# Assay: S. pyogenes streptokinase expression inhibitors, potency, dose response, plasminogen activation absorbance, OD405 (AID 1914);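 also: secreted streptokinase activity via plasminogen activation per viability signal from cell pellet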
# Type: functional, Streptococcus pyogenes M1 GAS
# Settings: not given
row,SMILES,EC50
1,C=C(C)COc1ccc(-c2n[nH]c(C)c2-c2ccccc2)c(O)c1,7.78 µM (active)

# Reference: ChEMBL document CHEMBL1201862, “PubChem BioAssay data set” (2004)
